The values that follow are results of earlier work, collected in patent US20060189586A1, “Pharmaceutical compositions comprising active vitamin D compounds” (priority 2003, published 2006).

The conditions of the data set: in vivo.

`C=C1/C(=C\C=C2/CCC[C@]3(C)C([C@H](C)CC#CC(C)(C)O)=CC[C@@H]23)C[C@@H](O)C[C@@H]1O` [Ro23-7553]: the “Hypercalcemic effect compared to calcitriol” value is listed as “reduced hypercalcemic effect”.

Regarding `C=C1/C(=C/C=C2\CCC[C@]3(C)C([C@H](C)CC#CC(O)(C(F)(F)F)C(F)(F)F)=CC[C@@H]23)C[C@@H](O)C[C@@H]1O` [Ro24-5531], the “Hypercalcemic effect compared to calcitriol” value is “reduced hypercalcemic effect”.
